Results on 28 molecules are retold here after patent US9351965B2, “Indazole derivatives useful as ERK inhibitors” (Merck Sharp & Dohme Corp., priority 2010, dated 2016).

The experiment concerns the target fully phosphorylated, active Mouse ERK2 protein (Mus musculus (Mouse), UniProt P63085). Description: Active ERK2 (aERK) IMAP assay. Conditions: IMAP fluorescence polarization; 30 μM ATP; 30 minute pre-incubation. It counts as biochemical. The procedure: 14 μl of kinase buffer (10 mM Tris.HCl pH 7.2, 10 mM MgCl2, 0.01% Tween-20, 1 mM DTT) containing 0.4 ng unphosphorylated Mouse ERK2 protein was added to each well of a black 384-well assay plate. […] DMSO concentration during initial incubation is 6.7%. […] DMSO concentration during ERK activation was 4%. After one hour, reactions were terminated by addition of 60 μl IMAP detections beads in binding buffer (Molecular Devices). Binding was allowed to equilibrate for 30 minutes before reading the plate on an LJL Analyst Fluorescence Polarization plate reader.
Active ERK2 (aERK) Assay:
Activated ERK2 activity was also determined in the IMAP assay format using the procedure outlined above. […] Reactions proceeded for 30 minutes before termination by addition of 60 μl IMAP detection beads in binding buffer. Plates were read as above after 30 minute binding equilibration.

Sequence of fully phosphorylated, active Mouse ERK2 protein (P63085 whole entry): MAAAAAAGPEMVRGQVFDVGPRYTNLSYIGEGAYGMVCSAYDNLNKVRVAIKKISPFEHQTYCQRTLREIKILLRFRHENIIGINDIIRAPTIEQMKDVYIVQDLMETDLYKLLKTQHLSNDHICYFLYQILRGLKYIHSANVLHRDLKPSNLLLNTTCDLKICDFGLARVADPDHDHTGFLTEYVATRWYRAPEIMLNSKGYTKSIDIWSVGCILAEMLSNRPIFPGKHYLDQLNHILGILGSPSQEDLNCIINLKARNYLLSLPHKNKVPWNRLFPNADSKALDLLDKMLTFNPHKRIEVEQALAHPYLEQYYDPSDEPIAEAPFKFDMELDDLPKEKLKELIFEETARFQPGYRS

One may read the IC50 as the midpoint of a concentration-inhibition curve. High values mean lower potency, low ones higher potency. `Cc1cc(-c2n[nH]c3ccc(C(=O)NC4CCCC(O)(Cc5ccccc5F)C4)cc23)ccn1` (single isomer, unassigned) [compound 1, N-[3-[(2-fluorophenyl)methyl]-3-hydroxycyclo-hexyl]-3-(2-methyl-4-pyridinyl)-1H-indazole-5-carboxamide] showed an IC50 of 0.589 µM. For `Cc1cc(-c2n[nH]c3ccc(C(=O)NC4CCCC(O)(Cc5ccccc5F)C4)cc23)ccn1` (single isomer, unassigned) [compound 2, N-[3-[(2-fluorophenyl)methyl]-3-hydroxycyclo-hexyl]-3-(2-methyl-4-pyridinyl)-1H-indazole-5-carboxamide] the value was 0.0208 µM.

The molecule `Cc1cc(-c2n[nH]c3ccc(C(=O)NC4CCCC(O)(Cc5ccccc5F)C4)cc23)ccn1` (single isomer, unassigned) [compound 3, N-[3-[(2-fluorophenyl)methyl]-3-hydroxycyclo-hexyl]-3-(2-methyl-4-pyridinyl)-1H-indazole-5-carboxamide] showed an IC50 of 0.0076 µM. As to `Cc1cc(-c2n[nH]c3ccc(C(=O)NC4CCCC(O)(Cc5ccccc5F)C4)cc23)ccn1` (single isomer, unassigned) [compound 4, N-[3-[(2-fluorophenyl)methyl]-3-hydroxycyclo-hexyl]-3-(2-methyl-4-pyridinyl)-1H-indazole-5-carboxamide], it took 0.128 µM to reach half-maximal inhibition (IC50). The result for `Cc1cc(-c2n[nH]c3ccc(C(=O)NC4CCCC(O)(Cc5c(F)cccc5F)C4)cc23)ccn1` (single isomer, unassigned) [compound 5, N-[3-[(2,6-difluorophenyl)methyl]-3-hydroxycyclohexyl]-3-(2-methyl-4-pyridinyl)-1H-indazole-5-carboxamide] reads 1 µM; that for `Cc1cc(-c2n[nH]c3ccc(C(=O)NC4CCCC(O)(Cc5c(F)cccc5F)C4)cc23)ccn1` (single isomer, unassigned) [compound 6, N-[3-[(2,6-difluorophenyl)methyl]-3-hydroxycyclohexyl]-3-(2-methyl-4-pyridinyl)-1H-indazole-5-carboxamide], 1 µM.

`Cc1cc(-c2n[nH]c3ccc(C(=O)NC4CCCC(O)(Cc5c(F)cccc5F)C4)cc23)ccn1` (single isomer, unassigned) [compound 7, N-[3-[(2,6-difluorophenyl)methyl]-3-hydroxycyclohexyl]-3-(2-methyl-4-pyridinyl)-1H-indazole-5-carboxamide] yielded a half-maximal inhibitory concentration (IC50) of 0.0152 µM.

The molecule `Cc1cc(-c2n[nH]c3ccc(C(=O)NC4CCCC(O)(Cc5c(F)cccc5F)C4)cc23)ccn1` (single isomer, unassigned) [compound 8, N-[3-[(2,6-difluorophenyl)methyl]-3-hydroxycyclohexyl]-3-(2-methyl-4-pyridinyl)-1H-indazole-5-carboxamide] showed an IC50 of 1 µM. The result for `O=C(NC1CCCC(O)(Cc2ccccc2F)C1)c1ccc2[nH]nc(-c3ccc4ncsc4c3)c2c1` (single isomer, unassigned) [compound 10, 3-(6-benzothiazolyl)-N-[3-[(2-fluorophenyl)methyl]-3-hydroxycyclohexyl]-1H-indazole-5-carboxamide] reads 1 µM. In turn, `O=C(NC1CCCC(O)(Cc2ccccc2F)C1)c1ccc2[nH]nc(-c3ccc4ncsc4c3)c2c1` (single isomer, unassigned) [compound 11, 3-(6-benzothiazolyl)-N-[3-[(2-fluorophenyl)methyl]-3-hydroxycyclohexyl]-1H-indazole-5-carboxamide] yielded an IC50 of 0.264 µM. `Cc1cc(-c2n[nH]c3ccc(C(=O)NC4CCCC(Oc5ccccc5F)C4)cc23)ccn1` (single isomer, unassigned) [compound 27, N-[3-(2-fluorophenoxy)cyclohexyl]-3-(2-methyl-4-pyridinyl)-1H-indazole-5-carboxamidem] registered an IC50 of 0.061 µM. The result for `Cc1cc(-c2n[nH]c3ccc(C(=O)NC4CCCC(Oc5ccccc5F)C4)cc23)ccn1` (single isomer, unassigned) [compound 28, N-[3-(2-fluorophenoxy)cyclohexyl]-3-(2-methyl-4-pyridinyl)-1H-indazole-5-carboxamide] reads 0.113 µM. Regarding `Cc1cc(-c2n[nH]c3ccc(C(=O)NC4CCCC(Oc5ccccc5Cl)C4)cc23)ccn1` (single isomer, unassigned) [compound 29, N-[3-(2-chlorophenoxy)cyclohexyl]-3-(2-methyl-4-pyridinyl)-1H-indazole-5-carboxamide], the IC50 is 1 µM. The result for `Cc1cc(-c2n[nH]c3ccc(C(=O)NC4CCCC(Oc5ccccc5Cl)C4)cc23)ccn1` (single isomer, unassigned) [compound 30, N-[3-(2-chlorophenoxy)cyclohexyl]-3-(2-methyl-4-pyridinyl)-1H-indazole-5-carboxamide] reads 0.0386 µM; that for `Cc1cc(-c2n[nH]c3ccc(C(=O)NC4CCCC(Oc5ccccc5Cl)C4)cc23)ccn1` (single isomer, unassigned) [compound 34, N-[3-(2-chlorophenoxy)cyclohexyl]-3-(2-methyl-4-pyridinyl)-1H-indazole-5-carboxamide], 0.198 µM; that for `Cc1cc(-c2n[nH]c3ccc(C(=O)NC4CCCC(Oc5ccccc5Cl)C4)cc23)ccn1` (single isomer, unassigned) [compound 35, N-[3-(2-chlorophenoxy)cyclohexyl]-3-(2-methyl-4-pyridinyl)-1H-indazole-5-carboxamide], 0.192 µM. For `Cc1cc(-c2n[nH]c3ccc(C(=O)NC4CCCC(Oc5ccc(F)cc5F)C4)cc23)ccn1` (single isomer, unassigned) [compound 37, N-[3-(2,4-difluorophenoxy)cyclohexyl]-3-(2-methyl-4-pyridinyl)-1H-indazole-5-carboxamide] the value was 0.128 µM; for `Cc1cc(-c2n[nH]c3ccc(C(=O)NC4CCCC(Oc5ccc(F)cc5F)C4)cc23)ccn1` (single isomer, unassigned) [compound 38, N-[3-(2,4-difluorophenoxy)cyclohexyl]-3-(2-methyl-4-pyridinyl)-1H-indazole-5-carboxamide], 0.476 µM; for `Cc1cc(-c2n[nH]c3ccc(C(=O)NC4CCCC(CO)(Oc5cccc(F)c5)C4)cc23)ccn1` (single isomer, unassigned) [compound 43, N-[3-(3-fluorophenoxy)-3-(hydroxymethyl)cyclohexyl]-3-(2-methyl-4-pyridinyl)-1H-indazole-5-carboxamide], 0.0134 µM. Take `Cc1cc(-c2n[nH]c3ccc(C(=O)NC4CCCC(CO)(Oc5cccc(F)c5)C4)cc23)ccn1` (single isomer, unassigned) [compound 44, N-[3-(3-fluorophenoxy)-3-(hydroxymethyl)cyclohexyl]-3-(2-methyl-4-pyridinyl)-1H-indazole-5-carboxamide]: 0.214 µM corresponded to half-maximal inhibition (IC50). For `Cc1cc(-c2n[nH]c3ccc(C(=O)NC4CCCC(CO)(Oc5cccc(F)c5)C4)cc23)ccn1` (single isomer, unassigned) [compound 45, N-[3-(3-fluorophenoxy)-3-(hydroxymethyl)cyclohexyl]-3-(2-methyl-4-pyridinyl)-1H-indazole-5-carboxamide] the value was 0.187 µM; for `Cc1cc(-c2n[nH]c3ccc(C(=O)N[C@@H]4CCCC(F)(Cc5ccccc5F)C4)cc23)ccn1` (single isomer, unassigned; isomer 1) [compound 55], 1 µM; for `Cc1nc2ccc(-c3n[nH]c4ccc(C(=O)N[C@@H]5CCC[C@](O)(Cc6ccccc6F)C5)cc34)cn2n1` [compound 12, N-[3(S)-[(2-fluorophenyl)methyl]-3-hydroxy-1(R)-cyclohexyl]-3-(2-methyl[1,2,4]triazolo[1,5-a]pyridin-6-yl)-1H-indazole-5-carboxamide], 0.0144 µM. As for `Cc1nc2ccc(-c3n[nH]c4ccc(C(=O)N[C@@H]5CCC[C@](O)(Cc6ccccc6F)C5)cc34)cc2s1` [compound 13, N-[3(S)-[(2-fluorophenyl)methyl]-3-hydroxy-1(R)-cyclohexyl]-3-(2-methyl-6-benzothiazolyl)-1H-indazole-5-carboxamide], the half-inhibitory concentration (IC50) was 0.0199 µM. As to `Cc1nc2ccc(-c3n[nH]c4ccc(C(=O)N[C@@H]5CCC[C@](O)(Cc6c(F)cccc6F)C5)cc34)cc2s1` [compound 14, N-[3(S)-[(2,6-difluorophenyl)methyl]-3-hydroxy-1(R)-cyclohexyl]-3-(2-methyl-6-benzothiazolyl)-1H-indazole-5-carboxamide], the concentration for half-maximal inhibition (IC50) was determined as 0.0154 µM. The result for `O=C(N[C@@H]1CCC[C@](O)(Cc2ccccc2F)C1)c1ccc2[nH]nc(-c3ccc4nccn4c3)c2c1` [compound 15, N-[3(S)-[(2-fluorophenyl)methyl]-3-hydroxy-1(R)-cyclohexyl]-3-imidazo[1,2-a]pyridin-6-yl-1H-indazole-5-carboxamide] reads 0.0086 µM; that for `CC(C)Oc1cc(-c2n[nH]c3ccc(C(=O)N[C@@H]4CCC[C@](O)(Cc5ccccc5F)C4)cc23)ccn1` [compound 16, N-[3(S)-[(2-fluorophenyl)methyl]-3-hydroxy-1(R)-cyclohexyl]-3-[2-(1-methylethoxy)-4-pyridinyl]-1H-indazole-5-carboxamide], 0.301 µM. As to `CC(C)Oc1ccc(-c2n[nH]c3ccc(C(=O)N[C@@H]4CCC[C@](O)(Cc5ccccc5F)C4)cc23)cn1` [compound 17, N-[3-(S)-[(2-fluorophenyl)methyl]-3-hydroxy-1(R)-cyclohexyl]-3-[6-(1-methylethoxy)-3-pyridinyl]-1H-indazole-5-carboxamide], the midpoint of inhibition, the IC50, lay at 0.0449 µM.
